Assay results as given in patent US20220098251A1, “PEPTIDE TAGS FOR LIGAND INDUCED DEGRADATION OF FUSION PROTEINS” (DANA-FARBER CANCER INSTITUTE, INC., priority 2018, published 2022).

Key:
eGFP-IKZF1Δ fusion = target: T1, eGFP-IKZF1Δ fusion (Homo sapiens, UniProt Q13422); assay: Cellular degradation assay of eGFP-IKZF1Δ reporter by flow cytometry; format: cell-based; settings: Flip-In 293 cells, 5 h, eGFP/mCherry
T1 construct: eGFP (followed by P2A); expressed in transfected cells
Description: Following 2-3 passage cycle FACS (FACSAria™ II, BD) was used to enrich for cells expressing eGFP and mCherry.
Signal from at least 3,000 events per well was acquired, and the eGFP and mCherry florescence monitored. Data were analyzed using FlowJo™ (FlowJo™, LCC). […] The eGFP protein abundance relative to mCherry was then quantified as a ten-fold amplified ratio for each individual cell using the formula: 10×eGFP/mCherry. The median of the ratio was then calculated per set, normalized to the median of the DMSO ratio.
Quantitative assessment of cellular degradation of a IKZF1-EGFP reporter using flow cytometry analysis. Cells stably expressing IKZF1Δ-EGFP and mCherry were treated with increasing concentrations of the indicated molecules and the EGFP and mCherry signals followed using flow cytometry analysis. Data in this figure are presented as means±s.d. from four cell culture replicates (n=4).

[1] = tested on: Jurkat cells expressing individual ZFs in the Cilantro 2 protein degradation reporter; assay: Drug dependent degradation of ZFs in Cilantro 2 protein degradation reporter lentivector; format: cell-based; settings: Cilantro 2, Jurkat cells
Excerpt: Next-generation sequencing of sorted cell populations encoding the ZF library was based on GFP expression. […] The experimental procedure was as described in Example 16.

DDB1ΔB-CRBN [2] = assay: TR-FRET of SALL4 degron binding to CRBN; parameters: species or system human; settings: for IMiD induced CRBN binding: purified proteins, SALL4 point mutants; for IMiD-dependent dimerization / binding affinity to CRBN: SALL4 degron tags, biochemical assays
Description: Compounds in binding assays were dispensed into a 384-well microplate (Corning, 4514) using the D300e Digital Dispenser (HP) normalized to 1% DMSO and containing 100 nM biotinylated Strep-Avi-SALL4 (WT or mutant, see, FIG. 3A-FIG. 3K), 1 μM His6-DDB1ΔB-His6-CRBNBODIPY-Spycatcher and 4 nM terbium-coupled streptavidin (Invitrogen) in a buffer containing 50 mM Tris pH 7.5, 100 mM NaCl, 1 mM TCEP, 0.1% Pluronic F-68 solution (Sigma). Before TR-FRET measurements were conducted, the reactions were incubated for 15 minutes at room temperature (RT). After excitation of terbium fluorescence at 337 nm, emission at 490 nm (terbium) and 520 nm (boron-dipyrromethene (BODIPY)) were recorded with a 70 μs delay over 600 μs to reduce background fluorescence and the reaction was followed over 30×200 second cycles of each data point using a PHERAstar® FS microplate reader (BMG Labtech). The TR-FRET signal of each data point was extracted by calculating the 520/490 nm ratios. Data from three independent measurements (n=3), each calculated as an average of 5 technical replicates per well per experiment, was plotted and the half maximal effective concentrations EC50 values calculated using variable slope equation in GraphPad Prism 7. […] The resulting data were fitted as described previously. (Petzold et al., Nature 532:127-130 (2016)).

[3] = tested on: Kelly cells transiently transfected with Flag-hsSALL4; assay: Western blot of Flag-hsSALL4 levels in Kelly cells treated with thalidomide; format: cell-based; settings: 24 hours
Description: Kelly cells were transiently transfected with hsSALL4^G416A or Flag-hsSALL4^G416N were treated with increasing concentrations of thalidomide or DMSO as a control. Following 24 hours of incubation, SALL4 (α-Flag) and GAPDH protein levels were assessed by western blot analysis (FIG. 4A). (See, Example 7 for western blot method.)
Kelly cells transiently transfected with Flag-hsSALL4WT, Flag-hsSALL4G600A, or hsSALL4G600N were treated with increasing concentrations of thalidomide or DMSO as a control. Following 24 h of incubation, SALL4 (α-Flag) and GAPDH protein levels were assessed by western blot analysis (one representative experiment is shown out of three replicates).
Cells were treated with compounds as indicated and incubated for 24 hours, or as indicated. Samples were run on 4-20% or Any kD™ SDS-PAGE Gels (Bio-rad), and transferred to polyvinylidene fluoride (PVDF) membranes using the iBlot® 2.0 dry blotting system (Thermo Fisher Scientific). Membranes were blocked with LI-COR® blocking solution (LI-COR®), and incubated with primary antibodies overnight, followed by three washes in LI-COR® blocking solution and incubation with secondary antibodies for one hour in the dark. After three final washes, the membranes were imaged on a LI-COR® fluorescent imaging station.

DDB1ΔB-CRBN [4] = target: T2, DDB1ΔB-CRBN (Homo sapiens, UniProt Q96SW2); assay: IKZF1Δ TR-FRET dimerization assay; format: binding; settings: titration of IMiDs
T2 construct: 3C protease site (N); made in house; host or cells: Trichoplusia ni High Five insect cells (baculovirus)
Description: Compounds in dimerization assays were dispensed in a 384-well microplate (Corning, 4514) using D300e Digital Dispenser (HP) normalized to 2% DMSO into 80 nM biotinylated StrepII-avi-IKZF1Δ (See, Figure legends), 100 nM His6-DDB1ΔB-His6-CRBNBODIPY-Spycatcher and 2 nM terbium-coupled streptavidin (Invitrogen™) in a buffer containing 50 mM Tris pH 7.5, 200 mM NaCl, 0.1% Pluronic F-68 solution (Sigma) and 2% DMSO (4% DMSO final). Before TR-FRET measurements were conducted, the reactions were incubated for 15 min at RT. After excitation of terbium fluorescence at 337 nm, emission at 490 nm (terbium) and 520 nm (BODIPY) were recorded with a […] to reduce background fluorescence and the reaction was followed over 30 200 second cycles of each data point using a PHERAstar® FS microplate reader (BMG Labtech). The TR-FRET signal of each data point was extracted by calculating the 520/490 nm ratio. The 520/490 nm ratios in IKZF1Δ TR-FRET assays were plotted to calculate or IC50 (for compound titrations) using GraphPad Prism 7 variable slope equation. The standard deviation in IKZF1Δ TR-FRET compound titrations was calculated from three independent replicates (n=3), or as an average of 5 technical replicates of single experiment for unlabeled protein titrations.
Titration of the indicated molecules to DDB1ΔB-CRBNSPYCATCHER-BODIPY, Terbium-streptavidin and IKZF1Δbiotin. […]

T1 sequence (Q96SW2 whole entry partner, one chain of several, the tested form may be a part): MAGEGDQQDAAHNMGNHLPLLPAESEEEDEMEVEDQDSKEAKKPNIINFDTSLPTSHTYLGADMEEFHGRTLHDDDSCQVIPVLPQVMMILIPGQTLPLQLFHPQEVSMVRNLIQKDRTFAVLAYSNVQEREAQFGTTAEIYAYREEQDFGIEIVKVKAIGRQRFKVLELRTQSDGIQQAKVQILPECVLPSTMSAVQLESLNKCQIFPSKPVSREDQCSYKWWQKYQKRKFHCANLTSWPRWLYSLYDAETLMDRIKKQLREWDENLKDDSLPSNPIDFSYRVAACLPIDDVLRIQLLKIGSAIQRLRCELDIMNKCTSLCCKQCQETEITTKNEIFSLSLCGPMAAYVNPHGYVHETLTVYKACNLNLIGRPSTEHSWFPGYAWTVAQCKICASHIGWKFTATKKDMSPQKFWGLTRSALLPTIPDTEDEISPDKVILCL
T1 sequence (Q16531 whole entry partner, one chain of several, the tested form may be a part): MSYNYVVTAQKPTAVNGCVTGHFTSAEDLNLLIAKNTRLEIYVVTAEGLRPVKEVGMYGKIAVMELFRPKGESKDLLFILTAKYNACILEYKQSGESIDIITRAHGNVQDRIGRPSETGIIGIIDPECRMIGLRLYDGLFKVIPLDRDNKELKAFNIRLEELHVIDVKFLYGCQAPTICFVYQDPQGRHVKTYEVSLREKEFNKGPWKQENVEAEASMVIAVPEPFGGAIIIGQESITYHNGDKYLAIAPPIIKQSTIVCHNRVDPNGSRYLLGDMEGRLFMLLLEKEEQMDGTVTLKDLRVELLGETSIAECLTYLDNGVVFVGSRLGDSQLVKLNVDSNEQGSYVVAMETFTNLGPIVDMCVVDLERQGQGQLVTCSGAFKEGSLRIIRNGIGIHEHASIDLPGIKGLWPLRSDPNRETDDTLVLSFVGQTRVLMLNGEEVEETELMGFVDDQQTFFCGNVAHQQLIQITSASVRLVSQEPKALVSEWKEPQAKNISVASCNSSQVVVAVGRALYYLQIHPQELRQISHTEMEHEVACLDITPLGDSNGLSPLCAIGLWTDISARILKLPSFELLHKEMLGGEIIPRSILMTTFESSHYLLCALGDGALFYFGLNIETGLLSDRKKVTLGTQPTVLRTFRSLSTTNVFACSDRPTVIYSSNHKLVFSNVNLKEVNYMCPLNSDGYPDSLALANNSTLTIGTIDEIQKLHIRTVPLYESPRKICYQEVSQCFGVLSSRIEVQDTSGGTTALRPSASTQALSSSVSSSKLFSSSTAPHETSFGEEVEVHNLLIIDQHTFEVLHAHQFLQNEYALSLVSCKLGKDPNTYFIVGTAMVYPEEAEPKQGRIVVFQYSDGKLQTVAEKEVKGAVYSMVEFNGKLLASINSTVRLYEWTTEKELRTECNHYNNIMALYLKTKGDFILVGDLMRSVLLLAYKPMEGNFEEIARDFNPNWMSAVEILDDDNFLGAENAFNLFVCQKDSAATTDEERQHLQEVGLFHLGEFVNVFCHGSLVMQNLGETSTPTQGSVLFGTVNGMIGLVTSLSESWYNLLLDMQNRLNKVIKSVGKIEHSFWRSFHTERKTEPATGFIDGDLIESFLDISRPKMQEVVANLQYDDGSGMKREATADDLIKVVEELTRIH
T2 sequence (Q96SW2 whole entry, stated change not applied): as the sequence (Q96SW2 whole entry partner, one chain of several, the tested form may be a part) above

Question: For Nc1cccc2c1CN(C1CCC(=O)NC1=O)C2=O (stereo not drawn) [lenalidomide], which “degradation of eGFP-IKZF1Δ fusion” value (eGFP-IKZF1Δ fusion) is on record?
Answer: potent degradation

Question: With Nc1cccc2c1C(=O)N(C1CCC(=O)NC1=O)C2=O (stereo not drawn) [pomalidomide] as the molecule, how does the “degradation of eGFP-IKZF1Δ fusion” value (eGFP-IKZF1Δ fusion) read?
Answer: potent degradation

Question: How did the “degradation of eGFP-IKZF1Δ fusion” value (eGFP-IKZF1Δ fusion) turn out when O=C1CCC(N2C(=O)c3ccccc3C2=O)C(=O)N1 (stereo not drawn) [thalidomide] was run?
Answer: potent degradation

Question: “CC220-1: zinc finger degron FYCTQCGAAFDRWEELYNHLLNH (SEQ ID NO: 185)” was tested. Which “degradation by iberdomide relative to control sequences” value [1] did it give?
Answer: more efficiently degraded by iberdomide (aka CC-220) than the indicated control sequences

Question: For “CC220-2: zinc finger degron MQCEICGFTCRRAEELNTHLNKH (SEQ ID NO: 186)”, which “degradation by iberdomide relative to control sequences” value [1] is on record?
Answer: more efficiently degraded by iberdomide (aka CC-220) than the indicated control sequences

Question: How did the “degradation by iberdomide relative to control sequences” value [1] turn out when “CC220-3: zinc finger degron FYCKQCGANFSRWEELYNHLKAH (SEQ ID NO: 187)” was run?
Answer: more efficiently degraded by iberdomide (aka CC-220) than the indicated control sequences

Question: Which results are given for “G416A: SALL4 with G416A point mutation in ZnF2”?
Answer: IMiD induced CRBN binding (DDB1ΔB-CRBN [2]): abrogated IMiD induced CRBN binding; protein degradation in cells [3]: disable degradation in cells

Question: How did the “IMiD-dependent dimerization / binding affinity to CRBN” value (DDB1ΔB-CRBN [2]) turn out when “Q595H: SALL4 ZnF4 with mutation of glutamine 595 residue” was run?
Answer: reduced binding affinity

Question: And the “protein degradation in cells” value [3]?
Answer: no effect at the ability of the protein product to be degraded

B1: G416N: SALL4 with G416N point mutation in ZnF2 (protein)
chain: ALYKHKCKYCSKVFGTDSSLQIHLRSHTGERPFVCSVCNHRFTTKGNLKVHFHRHPQVKAN
modifications: left off: small tags and cut ends
notes: SALL4 with G416N point mutation in ZnF2
Question: What does the source list for B1?
Answer: IMiD induced CRBN binding (DDB1ΔB-CRBN [2]): abrogated IMiD induced CRBN binding; protein degradation in cells [3]: disable degradation in cells

B2: SALL4 ZnF1-2: degron tag SEQ ID NO: 27 (protein)
chain: ALYKHKCKYCSKVFGTDSSLQIHLRSHTGERPFVCSVCGHRFTTKGNLKVHFHRHPQVKAN
Question: Which “IMiD-dependent dimerization / binding affinity to CRBN” value (DDB1ΔB-CRBN [2]) does the source give for B2 here?
Answer: sufficient to induce efficient dimerization

B3: S388N: SALL4 ZnF1-2 with S388N mutation in ZnF1 (SEQ ID NO: 84) (protein)
chain: ALYKHKCKYCNKVFGTDSSLQIHLRSHTGERPFVCSVCGHRFTTKGNLKVHFHRHPQVKAN
Question: B3 was tested. Which “IMiD induced CRBN binding” value (DDB1ΔB-CRBN [2]) did it give?
Answer: maintained IMiD induced CRBN binding

B4: IKZF1 (SEQ ID NO: 18): non-naturally occurring degron tag of SEQ ID NO: 18 (protein)
chain: RMLDASGEKMNGSHRDQGSSALSGVGGIRLPNGKLKCDICGIICIGPNVLMVHKRSHTGERPFQCNQCGASFTQKGNLLRHIKLHSGEKPFKCHLCNYACRRRDALTGHLRTHSVIKEETNHSEMAEDLCK
Question: How did the “dimerization between CRBN-DDB1ΔB and IKZF1Δ” value (DDB1ΔB-CRBN [4]) turn out when B4 was run?
Answer: Potent dimerization
